Assay [1] has as its target T1, α1dAR (Homo sapiens, UniProt P25100).
T1 construct: from tissue; host or cells: human bladder detrusor smooth muscle membranes
T1 sequence (P25100 1-572): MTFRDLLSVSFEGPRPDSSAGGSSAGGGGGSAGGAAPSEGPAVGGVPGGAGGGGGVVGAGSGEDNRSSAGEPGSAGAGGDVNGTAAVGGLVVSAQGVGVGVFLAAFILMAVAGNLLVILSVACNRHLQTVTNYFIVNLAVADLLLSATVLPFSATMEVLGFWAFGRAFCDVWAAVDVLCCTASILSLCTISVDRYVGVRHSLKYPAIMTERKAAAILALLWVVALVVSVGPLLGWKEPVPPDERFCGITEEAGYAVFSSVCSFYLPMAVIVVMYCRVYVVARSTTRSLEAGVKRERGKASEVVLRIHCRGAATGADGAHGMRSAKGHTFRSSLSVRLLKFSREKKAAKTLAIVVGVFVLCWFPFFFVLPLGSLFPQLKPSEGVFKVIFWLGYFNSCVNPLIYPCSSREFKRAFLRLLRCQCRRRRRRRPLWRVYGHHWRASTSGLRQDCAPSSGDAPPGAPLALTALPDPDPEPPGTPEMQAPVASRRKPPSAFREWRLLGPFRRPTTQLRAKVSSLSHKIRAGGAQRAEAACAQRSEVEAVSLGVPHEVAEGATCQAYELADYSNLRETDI
Nature of the assay: BMY7378 competition binding vs [125I]HEAT in human detrusor membranes, high affinity site. The conditions noted are these: share of total binding sites with high affinity, two-site fit, n=13. On the procedure: (§1) Human detrusor and rat bladder membrane preparation. Human detrusor and rat whole bladder was minced over dry ice, and suspended in cold lysis buffer (5 mM Tris HCl and 5 mM EDTA, pH 7.4) with protease inhibitors benzamidine (10 mg/ml), leupeptin (5 mg/ml), and soybean trypsin inhibitor (10 mg/ml) (Sigma Chemical Company; St. Louis, Mo.). A lysate was prepared with a Polytron PT 3000 (Brinkmann; Westbury, N.Y.) at 10,000 rpm for 10 seconds. After pelleting at 40,000×g for 15 minutes (Sorvall SM24 rotor), membranes were suspended in cold resuspension buffer (150 mM NaCl, 50 mM Tris-HCl, 5 mM EDTA, pH 7.4) with protease inhibitors, and kept on ice for immediate use (or stored at −70° C. for later use). Protein content was determined using the bicinchoninic assay (BCA) with bovine serum albumin (BSA) standards (Pierce; Rockford, Ill.).
(§2) Reaction conditions were as described above. Curves were fit with […] regression analysis using InPlot software (GraphPad).

The target in assay [2] is T2, α1aAR (Homo sapiens, UniProt P35348).
T2 construct: from tissue; host or cells: human bladder detrusor smooth muscle membranes
T2 sequence (P35348 1-466): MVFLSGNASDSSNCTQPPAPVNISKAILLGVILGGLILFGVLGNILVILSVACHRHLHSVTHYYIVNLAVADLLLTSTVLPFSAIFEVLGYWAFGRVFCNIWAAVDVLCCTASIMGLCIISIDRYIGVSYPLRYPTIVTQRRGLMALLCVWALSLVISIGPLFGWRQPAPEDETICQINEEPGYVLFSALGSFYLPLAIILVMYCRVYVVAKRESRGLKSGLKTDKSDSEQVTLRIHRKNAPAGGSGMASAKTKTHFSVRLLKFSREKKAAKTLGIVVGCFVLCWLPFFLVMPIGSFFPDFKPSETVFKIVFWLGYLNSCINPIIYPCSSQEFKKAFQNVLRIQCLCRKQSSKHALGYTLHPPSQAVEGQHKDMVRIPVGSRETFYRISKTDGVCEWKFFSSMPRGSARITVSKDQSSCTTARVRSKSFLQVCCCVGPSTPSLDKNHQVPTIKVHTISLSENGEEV
Nature of the assay: BMY7378 competition binding vs [125I]HEAT in human detrusor membranes, low affinity site. As to conditions: share of total binding sites with low affinity, two-site fit, n=13. On the procedure:
as §1, §2

For assay [3], the target named is T3, α1bAR (Homo sapiens, UniProt P35368).
T3 construct: expressed in transfected cells; host or cells: rat-1 fibroblasts, stably transfected; membranes
T3 sequence (P35368 1-520): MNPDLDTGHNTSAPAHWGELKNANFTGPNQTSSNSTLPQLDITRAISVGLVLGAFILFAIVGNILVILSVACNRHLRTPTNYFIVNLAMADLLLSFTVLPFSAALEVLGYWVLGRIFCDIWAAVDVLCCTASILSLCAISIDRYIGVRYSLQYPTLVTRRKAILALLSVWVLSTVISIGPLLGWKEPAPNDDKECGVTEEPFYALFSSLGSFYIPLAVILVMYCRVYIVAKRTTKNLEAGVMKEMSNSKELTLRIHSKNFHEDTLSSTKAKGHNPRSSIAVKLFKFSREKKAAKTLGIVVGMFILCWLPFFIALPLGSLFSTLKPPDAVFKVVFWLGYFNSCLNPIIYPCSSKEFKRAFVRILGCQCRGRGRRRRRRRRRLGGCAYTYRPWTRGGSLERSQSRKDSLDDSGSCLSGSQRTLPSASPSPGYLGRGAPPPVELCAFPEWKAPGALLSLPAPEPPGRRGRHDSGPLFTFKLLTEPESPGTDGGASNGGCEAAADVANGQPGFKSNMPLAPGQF
Nature of the assay: BMY7378 competition binding, membranes from rat-1 fibroblasts stably transfected with α1bAR (control). As to conditions: Control α1b: rat-1 fibroblast membranes stably transfected with α1bAR; read-out: pKi α1bAR (converted).
Excerpt: as §2

For assay [4], the target named is α1ARs in human detrusor. Nature of the assay: [125I]HEAT saturation binding in human detrusor membranes. The conditions noted are these: saturation binding isotherm, n=5. The method, then:
as §1
Radioligand binding. All mRNA and protein studies described were performed using detrusor from each patient described above (n=13). […] Dried filters were then counted in a gamma counter. Specific binding was calculated by subtracting nonspecific binding from total binding. […] Total α1AR density was then determined in each detrusor sample as described above, using a saturating concentration of [^125I]HEAT (300 pM). […]

Structures are written as SMILES.

Take `COc1ccccc1N1CCN(CCN2C(=O)CC3(CCCC3)CC2=O)CC1` [BMY7378]: the “% High” value in assay [1] is reported as 66±3.1%. The “% Low” value in assay [2] is listed as 35±3.1%. In assay [3], the Ki is 7.94 µM.
Broadly, the Kd is the equilibrium constant for the complex coming apart. Lower therefore signals a tighter complex. `O=C1c2ccccc2CCC1CNCCc1ccc(O)c(I)c1` (stereo not shown) [[125I]HEAT] displayed a Kd in assay [4] of 0.00013 ± 1.09e-06 µM.

For the origin of these results see patent US7858312B2, “Method of treating bladder and lower urinary tract syndromes” (Duke University, priority 1998, dated 2010).
